Measured values as given in US6403647B1, “Pulsed administration of compositions for the treatment of blood disorders” (priority 1996, dated 2002).

Experiments:
γ globin mRNA = details: continuous intravenous administration; cited from earlier work
Friend leukemia cells = details: cultured Friend leukemia cells; cited from earlier work
[1] = Continuous butyrate therapy in a child with beta thalassemia; assay type: in vivo, human
Excerpt: Treatment period, the ten month duration of butyrate therapy, is shown between the vertical lines.

[2] = Weekly then pulse butyrate in a patient with β° thalassemia; assay type: in vivo, human
Description: A plateau or even a decline in hematologic response has been commonly observed when butyrate therapy is given continuously. This is illustrated in a patient with β° thalassemia, who responded to weekly butyrate treatment with an increase in fetal globin synthesis and improved globin chain balance from 0.5 to 0.85 non-α to α-globin chain ratios (FIG. 8). A 3-fold increase in γ globin mRNA was detected 24-36 hours after therapy. A 1-1.5 gram/dl rise in total hemoglobin followed the increase in […] synthesis and mRNA, but total Hgb then plateaued and even declined slightly (solid line). A decline in ferritin is also frequently observed (lower panel), even though the patient received single daily supplements.
When therapy was decreased to shorter pulses for 2-3 days on alternate weeks, total hemoglobin rose another 2 grams/dl. Increased iron supplements were required to support the active erythropoiesis, despite the presence of iron overload.
The therapeutic rise in total hemoglobin plateaued or declined on weekly therapy. With a change to pulse therapy, shown by the curved arrow, there was a further rise in total Hgb to 9.6 gm/dl, a level that no longer requires transfusions.
A three fold increase in γ globin mRNA was detected 24 to 36 hours after therapy.
A 1.0 to 1.5 gram per deciliter rise in total hemoglobin followed the increase in γ globin mRNA synthesis for 30 to 50 days, but total Hgb plateaued and even declined slightly (FIG. 8). A decline in ferritin was also frequently observed (FIG. 10) even though the patient received single daily supplements.
Increased iron supplements were required to support active erythropoiesis, despite the iron overload (FIG. 10).

[3] = Globin chain synthesis at varied butyrate infusion rates in patients; assay type: in vivo, human; details: infusion at 150 mg per kg per hour; baseline 0.6
Description: Infusion rates were varied between 20 to 150 mg per kg per hour in several patients who have large proportions of circulating nucleated erythroblasts. Globin chain synthesis was assayed at different time points before and following drug infusions.

[4] = Apoptosis (fragmented DNA stain) of circulating erythroblasts, Hb-E beta thalassemia patient; assay type: in vivo, human
Excerpt: Peripheral blood from a patient with Hb-E beta thalassemia has 1200 NRBCs per 100 white blood cells which allows for rapid monitoring for apoptosis. […] A plateau or even a decline in hematologic response has been observed when butyrate therapy is given continuously.

[5] = Platelet counts in baboon with pulse administration; assay type: in vivo; details: increased from 240,000
fetal globin [6] = test: Fetal globin production in erythroid progenitor colonies (Bfu-e), sickle cell anemia patient; assay type: cell-based, human; details: controls 48% of non-α globin
Bfu-e = test: Erythroid colony (Bfu-e) proliferation with maximal growth factors, normal subject; assay type: cell-based, human; details: 0.2-0.5 mM where given
Excerpt: Erythroid cells were obtained, as described in Example 1, from a normal subject and cultured on semi-solid medium in the presence of a maximal amount of erythroid growth factors including IL-6, GM-CSF, SCF and EPO. Erythroid proliferation in the presence of these factors is expected to be maximal and, therefore, any increases observed would be significant.

human fetal liver cells = test: Erythroid progenitor colony proliferation, fetal liver cells; assay type: cell-based; details: 0.2 mM, maximal growth factors, p<0.025
Description: In a third experiment, human fetal liver cells were also tested. As fetal cells are known not to respond to the presence of the growth factors, any increases observed are highly significant. Erythroid progenitor cultures were established from fetal liver and plated with maximal amounts of growth factors. To these plates were added; lane 1, 2-(4′-methoxyphenoxy) propionic acid; lane 2, phenoxyacetic acid; and lane 3, α-methylhydrocinnamic acid; all at a concentration of 0.2 mM.

fetal globin [7] = test: Proportion of fetal globin-expressing cells in culture, fluorescent antibodies, sickle cell patient; assay type: cell-based, human; details: 14 days, controls 40.7%
Description: In a fourth experiment, erythroid cells were obtained from a sickle cell patient. These cells were established in culture both with and without test a variety of test compounds. Cultures were incubated for 14 days in methylcellulose media with maximal concentrations of all hematopoietic growth factors (GM-CSF, SCF, EPO). Colonies were analyzed using fluorescent monoclonal antibodies against fetal globin to determine the proportion of erythroid cells that expressed fetal globin.

[8] = Total hemoglobin in phlebotomized anemic baboons, continuous versus pulse therapy; assay type: in vivo, baboon
Description: Therapy was administered to anemic baboons who were being phlebotomized 5-10 ml/kg of blood per day on a continuous basis. EPO was administered daily at 300 U/kg/dose. Arginine butyrate was administered daily at 700 mg/kg/day for 5 days and phenoxyacetic acid at 500 mg/kg/day daily over 8 hours and at 1000 mg/kg/day for 24 hours/day daily for five days each. […] With continuous arginine butyrate treatment, hemoglobin remained essentially stable at 6.7 to 6.9 gram/dl. With continuous treatment with phenoxyacetic acid, hemoglobin levels remained stable at 7.0 gram/dl to 6.9 gram/dl during 8 hour therapy and declined from 6.8 to 4.5 when the drug was given for 24 hours per day for 5 days.

[9] = system: system A transport of amino acids; test: Uptake of 3H-methyl-aminoisobutyric acid (MeAIB) into erythroblasts; assay type: cell-based; details: for amino acid (MeAIB) uptake / transport: 2.0 mM, relative to untreated fetal liver erythroid cells
Description: Erythroblasts were tested for alterations in uptake of radio-labelled amino acid (^3H-methyl-aminoisobutyric acid; MeAIB) in the presence of AB (arginine butyrate), AMHCA (α-methylhydrocinnamic acid), PAA (phenoxyacetic acid), and IBT (isobutyramide), each at 2.0 mM.

[10] = DNA fragmentation assays (cell viability); assay type: cell-based; details: pulsed administration
Excerpt: Normal cell viability, the viability of an untransformed or uninfected cell, can be determined from analyzing the effects of the composition on one or more biological processes of the cell. Detrimental interference with one or more of these cellular processes becomes significant when the process becomes abnormal. Examples of quantitatable and qualifiable biological processes include the processes of cell division, protein synthesis, nucleic acid (DNA or RNA) synthesis, nucleic acid (principally DNA) fragmentation and apoptosis. Others processes include specific enzyme activities, the activities of the cellular transportation systems such as the transportation of amino acids by system A (neutral), system B (acidic) or system C (basic), and the expression of a cell surface protein. […] Abnormal cell division, for example, can be mitosis which occurs too rapidly, as in a malignancy, or unstably, resulting in programmed cell death or apoptosis, detected by increased DNA degradation. The determination of abnormal cell viability can be made on comparison with untreated control cells. Compositions preferably increase normal cell viability. Increased cell viability can be determined by those of ordinary skill in the art using, for example, DNA fragmentation analysis. […] Determinations of increased or decreased viability can also be concluded from an analysis of the results of multiple different assays. Where multiple tests provide conflicting results, accurate conclusions can still be drawn by those of ordinary skill based upon the cell type, the correctness or correlation of the tests with actual conditions and the type of composition.
Patients with blood disorders are typically quite infirm with, for example, iron damaged organs and systems. Most treatments further tax the patient's already frail health in an effort to combat the disorder.

[11] = system: K562 human erythroleukemia cells; details: cited from earlier work

Nc1ncn([C@@H]2O[C@H](CO)[C@@H](O)[C@H]2O)c(=O)n1 [AZA, 5-azacytidine]
increase in γ globin mRNA of bone marrow cells (γ globin mRNA): five- to seven-fold

CC(=O)O [acetate]
hemoglobin synthesis (Friend leukemia cells): induced hemoglobin synthesis

CCCC(=O)O [butyrate]
total hemoglobin ([1]; after 4 months of continuous weekly treatment): 7.5-8.4 gm/dl | total hemoglobin, peak ([1]; continuous therapy, baseline 5.6 grams/dl): 9.9 gm/dl | total hemoglobin, plateau ([1]; continuous therapy, for 2 months after peak): 8.0-8.8 gm/dl | total Hgb reached ([2]; after change to pulse therapy): 9.6 gm/dl | non-α to α-globin chain ratios ([2]; weekly butyrate, improved from 0.5): 0.85 | rise in total hemoglobin ([2]; weekly butyrate, then plateaued): 1-1.5 gram/dl | non-α globin to α globin ratio [3]: 0.77 | apoptosis, red stain of fragmented DNA ([4]; after high-dose): red staining of most cells | apoptosis, red stain of fragmented DNA ([4]; after low-dose pulse therapy): no red-staining erythroblasts are observed

O=C(O)CCc1ccccc1 [dihydrocinnamic acid]
platelet counts after treatment [5]: 767,000

CC(C)C(=O)O [isobutyrate]
hemoglobin synthesis (Friend leukemia cells): induced hemoglobin synthesis

O=C(O)COc1ccccc1 [phenoxyacetic acid]
increase in fetal globin over controls (fetal globin [6]): 34% | Bfu-e growth (Bfu-e): further increase Bfu-e growth | proliferation of colonies (human fetal liver cells): increased proliferation of colonies | Increase in γ-Globin Expressing Cells (fetal globin [7]; 0.2 mM): 54.6% | total hemoglobin after treatment ([8]; continuous, 500 mg/kg/day daily over 8 hours, from 7.0): 6.9 gram/dl | total hemoglobin after treatment ([8]; continuous, 1000 mg/kg/day, 24 hours per day for 5 days, declined from 6.8): 4.5 | total hemoglobin after treatment ([8]; pulse, 2 oral doses per week, 500 mg/kg on days 1 and 4, in one week, from 6.9): 7.6 gram/dl | system A transport of amino acids [9]: do not significantly alter system A transport of amino acids | amino acid (MeAIB) uptake / transport [9]: did not inhibit amino acid transport | DNA fragmentation in fragmentation assays [10]: reduce DNA fragmentation

CCC(=O)O [propionate]
hemoglobin synthesis (Friend leukemia cells): induced hemoglobin synthesis | ability to increase fetal globin expression [11]: most effective

CC(Cc1ccccc1)C(=O)O (stereo not drawn) [α-methylhydrocinnamic acid]
increase in fetal globin over controls (fetal globin [6]): 18% | Bfu-e growth (Bfu-e): further increase Bfu-e growth | proliferation of colonies (human fetal liver cells): increased proliferation of colonies | Increase in γ-Globin Expressing Cells (fetal globin [7]; concentration not given): 64.4% | system A transport of amino acids [9]: do not significantly alter system A transport of amino acids | amino acid (MeAIB) uptake / transport [9]: did not inhibit amino acid transport
